Assay results reported in PubChem BioAssay AID296 (DTP/NCI, 2004).
Records with an inconclusive call do not appear.

System: MX-1 breast xenograft, nude mice, tumor weight T/C
Assay: NCI In Vivo Anticancer Drug Screen. Data for tumor model Human Mammary Carcinoma MX-1 Xenograft (intrarenal inoculation) in NU/NU Swiss (nude) mice
Details: endpoint: mean tumor weight change, higher = larger tumour
Experimental: The antitumor activity of compounds was measured in mice bearing transplantable tumors. Survival or tumor size were measured and the results are expressed as the measurement made in the treated group (T) divided by the measurement made in the vehicle treated control group (C). The tumor model used in this assay is Human Mammary Carcinoma MX-1 Xenograft (intrarenal inoculation) in NU/NU Swiss (nude) mice

[1] = dose: 50.0 mg/kg/injection, schedule: Q04DX003 (sc), vehicle: saline
[2] = dose: 600.0 mg/kg/injection, schedule: Q04DX003 (sc), vehicle: saline with Tween-80
[3] = dose: 2400.0 mg/kg/injection, schedule: Q04DX003 (sc), vehicle: saline with Tween-80
[4] = dose: 300.0 mg/kg/injection, schedule: Q04DX003 (sc), vehicle: saline with Tween-80
[5] = dose: 1200.0 mg/kg/injection, schedule: Q04DX003 (sc), vehicle: saline with Tween-80
[6] = dose: 150.0 mg/kg/injection, schedule: Q04DX003 (sc), vehicle: saline

COC1C(C)OC(OC2CC(C)(O)Cc3cc4c(c(O)c32)C(=O)c2c(O)cc3c(c2C4=O)OC2OC3(C)C(O)C(N(C)C)C2O)C(OC)C1(C)OC (stereo not given)
T/C (dose: 10.0 mg/kg/injection, schedule: Q04DX003 (sc), vehicle: Klucel (hydroxypropylcellulose) (HPC)): 82 % of control | T/C (dose: 20.0 mg/kg/injection, schedule: Q04DX003 (sc), vehicle: Klucel (hydroxypropylcellulose) (HPC)): 94 % of control | T/C (dose: 40.0 mg/kg/injection, schedule: Q04DX003 (sc), vehicle: Klucel (hydroxypropylcellulose) (HPC)): 84 % of control | T/C (dose: 80.0 mg/kg/injection, schedule: Q04DX003 (sc), vehicle: Klucel (hydroxypropylcellulose) (HPC)): 76 % of control

O=C1C=C[C@H](O)[C@@]2(CO)O[C@@H]12
T/C (dose: 3.12 mg/kg/injection, schedule: Q04DX003 (sc), vehicle: saline with Tween-80): 106 % of control | T/C (dose: 6.25 mg/kg/injection, schedule: Q04DX003 (sc), vehicle: saline with Tween-80): 85 % of control

COc1ccc(C(=O)C(CN(C)C)CN(C)C)cc1
T/C (dose: 12.5 mg/kg/injection, schedule: Q04DX003 (sc), vehicle: saline): 101 % of control | T/C (dose: 25.0 mg/kg/injection, schedule: Q04DX003 (sc), vehicle: saline): 123 % of control | T/C [1]: 85 % of control

CC(=O)C(=O)O.CC(=O)C(=O)O.[NH-]C1CCCCC1[NH-].[Pt+2] (stereo not given)
T/C (dose: 6.25 mg/kg/injection, schedule: Q04DX003 (ip), vehicle: other): 46 % of control | T/C (dose: 12.5 mg/kg/injection, schedule: Q04DX003 (ip), vehicle: other): 74 % of control | T/C (dose: 25.0 mg/kg/injection, schedule: Q04DX003 (ip), vehicle: other): 45 % of control | T/C (dose: 50.0 mg/kg/injection, schedule: Q04DX003 (ip), vehicle: other): 12 % of control | T/C (dose: 100.0 mg/kg/injection, schedule: Q04DX003 (ip), vehicle: other): 9 % of control

CC[C@@]1(O)C[C@H](OC2CC(N(C)C)C(OC3CC(O)C(OC4CCC(=O)C(C)O4)C(C)O3)C(C)O2)c2c(cc3c(c2O)C(=O)c2c(O)ccc(O)c2C3=O)[C@H]1C(=O)OC (stereo not given in full)
T/C (dose: 3.0 mg/kg/injection, schedule: Q04DX003 (sc), vehicle: water): 88 % of control | T/C (dose: 6.0 mg/kg/injection, schedule: Q04DX003 (sc), vehicle: water): 43 % of control

BrC1c2cccc3cccc(c23)C1Br (stereo not given)
T/C [2]: 202 % of control | T/C [3]: 113 % of control

COc1cccc(C2NC(=O)c3c(n[nH]c3N)S2)c1O (stereo not given)
T/C (dose: 150.0 mg/kg/injection, schedule: Q04DX003 (sc), vehicle: saline with Tween-80): 50 % of control | T/C [4]: 62 % of control | T/C [2]: 77 % of control | T/C [5]: 117 % of control

Cc1c2cc(Cl)c3ccccc3c2c[n+]2ccccc12
T/C [4]: 82 % of control | T/C [2]: 67 % of control | T/C [5]: 44 % of control | T/C [3]: 76 % of control

CC1=C2CC(C)(C)/C=C\C(=O)/C(C)=C\C3=C[C@H](C)C[C@]3(O2)C1=O
T/C (dose: 12.5 mg/kg/injection, schedule: Q04DX003 (sc), vehicle: Klucel (hydroxypropylcellulose) (HPC)): 84 % of control | T/C (dose: 25.0 mg/kg/injection, schedule: Q04DX003 (sc), vehicle: Klucel (hydroxypropylcellulose) (HPC)): 100 % of control | T/C (dose: 50.0 mg/kg/injection, schedule: Q04DX003 (sc), vehicle: Klucel (hydroxypropylcellulose) (HPC)): 82 % of control

O=C(C1CO1)C(Cl)(Cl)Cl (stereo not given)
T/C [6]: 64 % of control

Cc1c2ccncc2c(C)c2c1[nH]c1ccccc12
T/C (dose: 6.25 mg/kg/injection, schedule: Q01DX010 (sc), vehicle: saline): 63 % of control | T/C (dose: 50.0 mg/kg/injection, schedule: Q01DX010 (sc), vehicle: suspension in saline): 81 % of control | T/C (dose: 200.0 mg/kg/injection, schedule: Q01DX010 (sc), vehicle: suspension in saline): 85 % of control

O=CC(O)C(O)C(O)C(O)C(=O)O.[NH-]C1CCCCC1[NH-].[Pt+2] (stereo not given)
T/C (dose: 9.38 mg/kg/injection, schedule: Q04DX003 (sc), vehicle: suspension in saline): 48 % of control | T/C (dose: 18.75 mg/kg/injection, schedule: Q04DX003 (sc), vehicle: suspension in saline): 28 % of control

CCOC(C)C(/C=N/NC(N)=S)=NNC(N)=S (stereo not given)
T/C (dose: 100.0 mg/kg/injection, schedule: Q01DX010 (sc), vehicle: saline with Tween-80): 167 % of control | T/C (dose: 200.0 mg/kg/injection, schedule: Q01DX010 (sc), vehicle: saline with Tween-80): 123 % of control | T/C (dose: 800.0 mg/kg/injection, schedule: Q01DX010 (sc), vehicle: saline with Tween-80): 96 % of control

Nc1nc(=O)n(C2OC(CO)C(O)C2O)cc1F (stereo not given)
T/C [4]: 103 % of control | T/C [2]: 77 % of control | T/C [5]: 81 % of control | T/C [3]: 32 % of control

[CH3][Sn]([CH3])([Cl])[c]1cc[c]([Sn]([CH3])([CH3])[Cl])cc1
T/C (dose: 1.25 mg/kg/injection, schedule: Q04DX003 (ip), vehicle: saline): 98 % of control | T/C (dose: 2.5 mg/kg/injection, schedule: Q04DX003 (ip), vehicle: saline): 101 % of control | T/C (dose: 5.0 mg/kg/injection, schedule: Q04DX003 (ip), vehicle: saline): 89 % of control

Nc1ncnc2c1ncn2C1OC(COP(=O)(O)O)C(O)C1O (stereo not given)
T/C (dose: 100.0 mg/kg/injection, schedule: Q01DX010 (ip), vehicle: saline): 85 % of control | T/C (dose: 200.0 mg/kg/injection, schedule: Q01DX010 (ip), vehicle: saline): 90 % of control | T/C (dose: 333.33 mg/kg/injection, schedule: Q04DX003 (sc), vehicle: saline): 124 % of control | T/C (dose: 400.0 mg/kg/injection, schedule: Q01DX010 (ip), vehicle: saline): 51 % of control | T/C (dose: 666.65 mg/kg/injection, schedule: Q04DX003 (ip), vehicle: saline): 106 % of control | T/C (dose: 666.65 mg/kg/injection, schedule: Q04DX003 (sc), vehicle: saline): 115 % of control | T/C (dose: 800.0 mg/kg/injection, schedule: Q01DX010 (ip), vehicle: saline): 6 % of control | T/C (dose: 1333.3 mg/kg/injection, schedule: Q04DX003 (ip), vehicle: saline): 49 % of control | T/C (dose: 1333.3 mg/kg/injection, schedule: Q04DX003 (sc), vehicle: saline): 62 % of control | T/C (dose: 1600.0 mg/kg/injection, schedule: Q01DX010 (sc), vehicle: saline): -36 % of control | T/C (dose: 2666.6 mg/kg/injection, schedule: Q04DX003 (ip), vehicle: saline): 29 % of control | T/C (dose: 2666.6 mg/kg/injection, schedule: Q04DX003 (sc), vehicle: saline): 76 % of control

O=C(/C=C(\Cl)C(=O)NO)NO
T/C [1]: 93 % of control | T/C (dose: 100.0 mg/kg/injection, schedule: Q04DX003 (sc), vehicle: saline): 80 % of control | T/C (dose: 200.0 mg/kg/injection, schedule: Q04DX003 (sc), vehicle: saline): 77 % of control

O=C(O)C1CC(O)CN1 (stereo not given)
T/C [6]: 67 % of control | T/C (dose: 300.0 mg/kg/injection, schedule: Q04DX003 (sc), vehicle: saline): 120 % of control | T/C (dose: 600.0 mg/kg/injection, schedule: Q04DX003 (sc), vehicle: saline): 91 % of control | T/C (dose: 1200.0 mg/kg/injection, schedule: Q04DX003 (sc), vehicle: saline): 106 % of control

O=C1C=CC(n2cc(F)c(=O)[nH]c2=O)O1 (stereo not given)
T/C (dose: 75.0 mg/kg/injection, schedule: Q04DX003 (sc), vehicle: Klucel (hydroxypropylcellulose) (HPC)): 104 % of control

S=c1[nH]cc2cnccn12
T/C [4]: 104 % of control | T/C [2]: 97 % of control | T/C [5]: 106 % of control

COC1C(O)CC(OC2CC(OC3CC(O[C@@H]4C(=O)c5c(cc6cc(OC7CC(OC8CC(O)C(O)C(C)O8)C(O)C(C)O7)c(C)c(O)c6c5O)C[C@H]4[C@H](OC)C(=O)[C@@H](O)[C@@H](C)O)OC(C)C3O)OC(C)C2O)OC1C (stereo not given in full)
T/C (dose: 0.18 mg/kg/injection, schedule: Q01DX010 (sc), vehicle: saline): 99 % of control | T/C (dose: 0.37 mg/kg/injection, schedule: Q04DX003 (sc), vehicle: saline): 123 % of control | T/C (dose: 0.75 mg/kg/injection, schedule: Q04DX003 (sc), vehicle: saline): 90 % of control | T/C (dose: 1.5 mg/kg/injection, schedule: Q04DX003 (sc), vehicle: saline): 61 % of control | T/C (dose: 3.0 mg/kg/injection, schedule: Q01DX010 (sc), vehicle: saline): -93 % of control | T/C (dose: 3.0 mg/kg/injection, schedule: Q04DX003 (sc), vehicle: saline): 35 % of control

CCOC(=O)C(N)C[S][Sn]([CH3])([CH3])[Cl] (stereo not given)
T/C (dose: 75.0 mg/kg/injection, schedule: Q04DX003 (sc), vehicle: saline): 155 % of control
